Results: patent US4708961A, “Acylindole derivatives and their use in pharmaceutical compositions” (priority 1983, dated 1987)

Legend:
[1] = system: collagen induced platelet-aggregation (Platelet Rich Plasma); assay: Inhibition of platelet-aggregation (collagen induced, aggregometer, rat PRP); type: cell-based, Wistar-strain male rats; settings: for Platelet Aggregation (%): control 58 ± 1; for IC50: same manner (collagen), male rats weighing 500-700 g
Method: (2) Inhibition of platelet-aggregation
Groups of 5 Wistar-strain male rats (weighing 250-300 g) were used for collection of blood from abdominal aorta in the presence of sodium citric acid under anesthesia with ether. The obtained material was centrifuged at 200×g for 8 minutes to give Platelet Rich Plasma (PRP) from the supernatant. Further centrifugation was carried out at 1500×g for 15 minutes to obtain Platelet Poor Plasma (PPP) from the supernatant.
Platelet-aggregation was measured by aggregometer. 5 μl of the solution of the examined compound was added to 450 μl of the above-mentioned PRP and incubated for 1 minute at 37° C., after that a coagulant was added thereto. Collagen was used as the coagulant (final concentration was 4 μg/ml). Test compound was dissolved in DMSO (dimethylsulfoxide).
In the same manner as indicated above using Wister strain male rats weighing 500-700 g, example of the results is shown in Table 2.

ddy-strain male mice = assay: Acute toxicity test; type: in vivo; settings: 4000 mg/kg, orally administered, groups of 5 ddy-strain male mice fasted for 18 hours
Method: 4000 mg/kg of the compound of the invention were orally administered to groups of 5 ddy-strain male mice which were fasted for 18 hours.

[2] = 300 μM, collagen 4 μg/ml, PRP of Wistar-strain male rats 250-300 g, 1 minute at 37° C.
[3] = Rattus norvegicus, Platelet, 1 min, 300 μM, collagen 4 μg/ml, PRP of Wistar-strain male rats 250-300 g, 1 minute at 37° C., read-out: Inhibition rate (%)

Structure (SMILES)	Platelet Aggregation (%) [1, 2] [%]	inhibition at 300 µM [1, 3] [%]	IC50 ([1]; Rattus norvegicus, Platelet) [µM]	mortality (none of the mice were died) (ddy-strain male mice)	Platelet Aggregation (%) ([1]; 200 μM, collagen 4 μg/ml, PRP of Wistar-strain male rats 250-300 g, 1 minute at 37° C.)	inhibition at 200 µM ([1]; Rattus norvegicus, Platelet, 1 min, 200 μM, collagen 4 μg/ml, PRP of Wistar-strain male rats 250-300 g, 1 minute at 37° C., read-out: Inhibition rate (%)) [%]
CC(=O)Oc1ccccc1C(=O)O [Aspirin, reference compound]	23 ± 4	60	–	–	–	–
COc1ccc2c(c1)c(CC(=O)O)c(C)n2C(=O)c1ccc(Cl)cc1 [Indomethacin, reference compound]	–	–	27	–	–	–
COc1ccc(C(=O)c2c[nH]c3ccccc23)cc1 [compound 1, 3-(p-methoxybenzoyl)indole]	22 ± 5	62	30	none of the mice were died	–	–
COc1ccccc1C(=O)c1c[nH]c2ccccc12 [compound 2, 3-(o-methoxybenzoyl)indole]	7 ± 4	–	29	none of the mice were died	–	–
O=C(c1ccc(O)cc1)c1c[nH]c2ccccc12 [compound 3, 3-(p-hydroxybenzoyl)indole]	7 ± 3	–	27	none of the mice were died	–	–
O=C(c1ccccc1O)c1c[nH]c2ccccc12 [compound 4, 3-(o-hydroxybenzoyl)indole]	8 ± 5	–	23	none of the mice were died	–	–
COc1ccc(C(=O)c2cn(C(C)=O)c3ccccc23)cc1 [compound 5, 3-(p-methoxybenzoyl)-N-acetylindole]	–	–	29	none of the mice were died	33 ± 1	43
COc1ccccc1C(=O)c1cn(C(C)=O)c2ccccc12 [compound 6, 3-(o-methoxybenzoyl)-N-acetylindole]	9 ± 3	84	18	none of the mice were died	–	–
CC(=O)Oc1ccc(C(=O)c2cn(C(C)=O)c3ccccc23)cc1 [compound 7, 3-(p-acetoxybenzoyl)-N-acetylindole]	7 ± 1	88	21	none of the mice were died	–	–
COc1ccc(C(=O)c2cn(C)c3ccccc23)cc1 [compound 8, 3-(p-methoxybenzoyl)-N-methylindole]	–	–	23	none of the mice were died	–	–
CC(C)Oc1ccc(C(=O)c2c[nH]c3ccccc23)cc1 [compound 9, 3-(p-isopropoxybenzoyl)indole]	8 ± 3	–	–	none of the mice were died	–	–
O=C(c1ccc(OCC(O)CO)cc1)c1c[nH]c2ccccc12 (stereo not drawn) [compound 16, 3-[p-(2,3-dihydroxypropoxy)benzoyl]indole]	–	–	61	–	–	–
O=C(c1ccc(O)cc1)c1cn(CC(O)CO)c2ccccc12 (stereo not drawn) [compound 17, 3-(p-hydroxybenzoyl)-N-(2,3-dihydroxypropyl)indole]	–	–	85	–	–	–
O=C(c1ccc(OCC(O)CO)cc1)c1cn(CC(O)CO)c2ccccc12 (stereo not drawn) [compound 18, 3-[p-(2,3-dihydroxypropoxy)benzoyl]-N-(2,3-dihydroxypropyl)indole]	–	–	94	–	–	–
O=C(c1ccccc1O)c1cn(CC(O)CO)c2ccccc12 (stereo not drawn) [compound 19, 3-(o-hydroxybenzoyl)-N-(2,3-dihydroxypropyl)indole]	–	–	81	–	–	–
O=C(c1ccccc1OCC(O)CO)c1cn(CC(O)CO)c2ccccc12 (stereo not drawn) [compound 20]	–	–	108	–	–	–
O=C(c1ccc(OCCCO)cc1)c1c[nH]c2ccccc12 [compound 23, 3-[p-(3-hydroxypropoxy)benzoyl]indole]	–	–	52	–	–	–
O=C(c1ccc(OCCCO)cc1)c1cn(CCCO)c2ccccc12 [compound 24, 3-[p-(3-hydroxypropoxy)benzoyl]-N-(3-hydroxypropyl)indole]	–	–	77	–	–	–
